Experimental data from ChEMBL document CHEMBL1201862, “PubChem BioAssay data set” (2004).
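1) Cells in 96-well plates. 2) Compound, 48 h, 5 concentrations. 3) Linear interpolation between surrounding doses. 4) Unreached endpoint = highest concentration. GI50 is the concentration that inhibits growth by half.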 Calls of active or inactive are those of the source. Cut-off read from the data, not from the text of the source: active = GI50 up to about 1.1 µM and inactive = higher.

Assays:
Assay in all cases: inhibition of tumour cell growth, NCI panel, 48 h
[1] = system: 786-0
[2] = system: A498
[3] = system: A549
[4] = system: ACHN
[5] = system: CCRF-CEM
[6] = system: COLO 205
[7] = system: DMS-114
[8] = system: EKVX
[9] = system: HCC 2998
[10] = system: HCT-116
[11] = system: HCT-15
[12] = system: HL-60
[13] = system: HOP-18
[14] = system: HOP-62
[15] = system: IGROV-1
[16] = system: K562
[17] = system: KM-20L2
[18] = system: KM12
[19] = system: LOX IMVI
[20] = system: LXFL 529
[21] = system: M14
[22] = system: M19-MEL
[23] = system: MOLT-4
[24] = system: Malme-3M
[25] = system: NCI-H226
[26] = system: NCI-H23
[27] = system: NCI-H460
[28] = system: NCI-H522
[29] = system: OVCAR-3
[30] = system: OVCAR-5
[31] = system: OVCAR-8
[32] = system: RPMI-8226
[33] = system: RXF 393
[34] = system: SF-268
[35] = system: SF-295
[36] = system: SF-539
[37] = system: SK-MEL-28
[38] = system: SK-MEL-2
[39] = system: SK-MEL-5
[40] = system: SK-OV-3
[41] = system: SN12C
[42] = system: SNB-19
[43] = system: SNB-75
[44] = system: SNB-78
[45] = system: SW-620
[46] = system: TK-10
[47] = system: U-251
[48] = system: UACC-257
[49] = system: UACC-62
[50] = system: UO-31

## O=C(COc1ccc2c(=O)cc(-c3ccccc3)oc2c1)N1CCN(c2ccccc2)CC1
[1]
  GI50: 41 µM (inactive)
[2]
  GI50: > 10 µM (inactive)
[3]
  GI50: 39.2 µM (inactive)
[4]
  GI50: 50.8 µM (inactive)
[5]
  GI50: 24.7 µM (inactive)
[6]
  GI50: 37 µM (inactive)
[7]
  GI50: 24.5 µM (inactive)
[8]
  GI50: 28.4 µM (inactive)
[9]
  GI50: 33.1 µM (inactive)
[10]
  GI50: 71.8 µM (inactive)
[11]
  GI50: 41.2 µM
[12]
  GI50: 15.8 µM (inactive)
[13]
  GI50: 41.9 µM (inactive)
[14]
  GI50: 78.7 µM (inactive)
[15]
  GI50: > 100 µM (inactive)
[16]
  GI50: 18 µM (inactive)
[17]
  GI50: 37.7 µM (inactive)
[18]
  GI50: 60.5 µM (inactive)
[19]
  GI50: 57.3 µM (inactive)
[20]
  GI50: 34.1 µM (inactive)
[21]
  GI50: 76.6 µM (inactive)
[22]
  GI50: 62.2 µM (inactive)
[23]
  GI50: 11.1 µM (inactive)
[24]
  GI50: 51.6 µM (inactive)
[25]
  GI50: 72.4 µM (inactive)
[26]
  GI50: 46.1 µM (inactive)
[27]
  GI50: 31.8 µM (inactive)
[28]
  GI50: 18.8 µM (inactive)
[29]
  GI50: 42.9 µM (inactive)
[30]
  GI50: 34.6 µM (inactive)
[31]
  GI50: 26.4 µM (inactive)
[32]
  GI50: 14.2 µM (inactive)
[33]
  GI50: 16.7 µM (inactive)
[34]
  GI50: 46.2 µM (inactive)
[35]
  GI50: 52.6 µM (inactive)
[36]
  GI50: 71.1 µM (inactive)
[37]
  GI50: 49.8 µM (inactive)
[38]
  GI50: 21.1 µM (inactive)
[39]
  GI50: 25.4 µM (inactive)
[40]
  GI50: > 100 µM (inactive)
[41]
  GI50: 41.4 µM (inactive)
[42]
  GI50: 36.6 µM (inactive)
[43]
  GI50: 27.5 µM (inactive)
[44]
  GI50: > 100 µM (inactive)
[45]
  GI50: 83.8 µM (inactive)
[46]
  GI50: 44.6 µM (inactive)
[47]
  GI50: 38.5 µM (inactive)
[48]
  GI50: 43 µM (inactive)
[49]
  GI50: 57.9 µM (inactive)
[50]
  GI50: 19.8 µM (inactive)
